These results are taken from ChEMBL document CHEMBL5257026, “Progress and prospects on DENV protease inhibitors” (Eur J Med Chem, 2016).

Usually Ki stands for the equilibrium dissociation constant of an inhibitor or competing ligand from its target. What is called IC50 is the concentration that inhibits the measured activity by half. Usually EC50 stands for the midpoint of the concentration-response curve.

Data set [1] can be described thus: Inhibition of DENV2 NS2B-NS3 protease using Boc-Gly-Lys-Arg-AMC as substrate incubated for 30 mins by fluorescence assay. Set-up: species or system dengue virus type 2.
Data set [2] is described as follows: Inhibition of DENV2 TSV01 NS2B-NS3 protease using BOC-GRR-AMC as substrate incubated for 30 mins by spectrofluorometeric assay. Set-up: species or system dengue virus type 2.
Data set [3] is described as follows: Selectivity index, ratio of CC50 for cytotoxicity against African green monkey Vero cells to EC50 for antiviral activity against DENV3 P12-08 infected in African green monkey Vero cells. Type of data set: toxicity, cell-based. To be noted: read-out: Ratio CC50/EC50.
Data set [4] is described as follows: Selectivity index, ratio of CC50 for cytotoxicity against African green monkey Vero cells to EC50 for antiviral activity against DENV4 P11-08 infected in African green monkey Vero cells. It counts as toxicity, cell-based. To be noted: read-out: Ratio CC50/EC50.
Data set [5] is described as follows: Selectivity index, ratio of CC50 for cytotoxicity against African green monkey Vero cells to EC50 for antiviral activity against DENV1 P03-08 infected in African green monkey Vero cells. It counts as toxicity, cell-based. The note with it: read-out: Ratio CC50/EC50.
A short description of data set [6]: Selectivity index, ratio of CC50 for cytotoxicity against African green monkey Vero cells to EC50 for antiviral activity against DENV2 New Guinea C infected in African green monkey Vero cells. To be noted: read-out: Ratio CC50/EC50. It counts as toxicity, cell-based.
A short description of data set [7]: Inhibition of DENV1 N-terminally hexa-His tagged NS2B (48 to 95 residues) -NS3 (1 to 184 residues) protease expressed in Escherichia coli XL1 Blue using QXL570-Phe-Ala-Ser-Gly-Lys-Arg-Ser-Gln-Ile-Gly-Leu-Lys(5-TAMRA)-NH2 as substrate and measured for 15 mins by FRET assay. Set-up: species or system dengue virus type 1.
Data set [8] can be described thus: Inhibition of DENV3 N-terminally hexa-His tagged NS2B (48 to 95 residues) -NS3 (1 to 184 residues) protease expressed in Escherichia coli XL1 Blue using QXL570-Phe-Ala-Ser-Gly-Lys-Arg-Ser-Gln-Ile-Gly-Leu-Lys(5-TAMRA)-NH2 as substrate and measured for 15 mins by FRET assay. Set-up: species or system dengue virus type 3.
Data set [9] is described as follows: Inhibition of DENV2 N-terminally hexa-His tagged NS2B (48 to 95 residues) -NS3 (1 to 184 residues) protease expressed in Escherichia coli XL1 Blue using QXL570-Phe-Ala-Ser-Gly-Lys-Arg-Ser-Gln-Ile-Gly-Leu-Lys(5-TAMRA)-NH2 as substrate and measured for 15 mins by FRET assay. Set-up: species or system dengue virus type 2.
The nature of data set [10]: Inhibition of DENV4 N-terminally hexa-His tagged NS2B (48 to 95 residues) -NS3 (1 to 184 residues) protease expressed in Escherichia coli XL1 Blue using QXL570-Phe-Ala-Ser-Gly-Lys-Arg-Ser-Gln-Ile-Gly-Leu-Lys(5-TAMRA)-NH2 as substrate and measured for 15 mins by FRET assay. Set-up: species or system dengue virus type 4.
The nature of data set [11]: Inhibition of DENV2 recombinant NS2B-NS3 protease expressed in Escherichia coli JM109 assessed as inhibition constant using acetyl-TTSTRR-para-nitroaniline as substrate preincubated for 10 mins followed by substrate addition measured after 120 mins by spectrophotometric analysis. Set-up: species or system dengue virus type 2.
The nature of data set [12]: Inhibition of DENV4 NS2B-NS3 protease expressed in Escherichia coli BL21 (DE3) using Bz-Nle-Lys-Arg-Arg-AMC as substrate preincubated for 30 mins followed by substrate addition by fluorescence plate reader analysis. Set-up: species or system dengue virus type 4.
Data set [13] is described as follows: Inhibition of DENV3 NS2B-NS3 protease expressed in Escherichia coli BL21 (DE3) using Bz-Nle-Lys-Arg-Arg-AMC as substrate preincubated for 30 mins followed by substrate addition by fluorescence plate reader analysis. Set-up: species or system dengue virus type 3.
Data set [14] can be described thus: Inhibition of DENV2 NS2B-NS3 protease expressed in Escherichia coli BL21 (DE3) using Bz-Nle-Lys-Arg-Arg-AMC as substrate preincubated for 30 mins followed by substrate addition by fluorescence plate reader analysis. Set-up: species or system dengue virus type 2.
A short description of data set [15]: Inhibition of DENV1 NS2B-NS3 protease expressed in Escherichia coli BL21 (DE3) using Bz-Nle-Lys-Arg-Arg-AMC as substrate preincubated for 30 mins followed by substrate addition by fluorescence plate reader analysis. Set-up: species or system dengue virus type 1.
A short description of data set [16]: Inhibition of DENV2 NS2B-NS3 protease using Bz-Nle-Lys-Arg-Arg-AMC as substrate preincubated for 15 mins followed by substrate addition by fluorescence assay. Set-up: species or system dengue virus type 2.
A further data set deals with dengue virus type 2. Kind of data set: Antiviral activity against DENV2 infected in Golden hamster BHK-21 cells assessed as reduction in viral titer incubated for 72 hrs by plaque-forming assay. It counts as functional, organism-based. To be noted: BHK-21, 72 h.
The nature of data set [17]: Inhibition of DENV2 N-terminally hexa-His tagged NS2B (49 to 92 residues) -NS3 (1 to 184 residues) protease using Ac-TTSTRR-pNA as substrate preincubated for 10 mins followed by substrate addition and measured after 120 mins by HTS assay. Set-up: species or system dengue virus type 2.
Data set [18] in a line: Inhibition of DENV1 recombinant NS2B-NS3 protease expressed in Escherichia coli using Abz-RRRRSAG-nY-NH2 as substrate preincubated for 20 mins at 37 degC followed by substrate addition measured after 60 mins by fluorescence spectrophotometric analysis. Set-up: species or system dengue virus type 1.
Data set [19] in a line: Inhibition of DENV2 recombinant NS2B-NS3 protease expressed in Escherichia coli using Abz-RRRRSAG-nY-NH2 as substrate preincubated for 20 mins at 37 degC followed by substrate addition measured after 60 mins by fluorescence spectrophotometric analysis. Set-up: species or system dengue virus type 2.
Data set [20] is described as follows: Inhibition of DENV3 recombinant NS2B-NS3 protease expressed in Escherichia coli using Abz-RRRRSAG-nY-NH2 as substrate preincubated for 20 mins at 37 degC followed by substrate addition measured after 60 mins by fluorescence spectrophotometric analysis. Set-up: species or system dengue virus type 3.
A short description of data set [21]: Inhibition of DENV4 recombinant NS2B-NS3 protease expressed in Escherichia coli using Abz-RRRRSAG-nY-NH2 as substrate preincubated for 20 mins at 37 degC followed by substrate addition measured after 60 mins by fluorescence spectrophotometric analysis. Set-up: species or system dengue virus type 4.

Residues, ends and D or L forms follow the SMILES beside them.

`Cc1cc(=O)cc2oc3cc(N)c(-c4c(C)cc(O)cc4O)c(C)c3nc1-2` showed a Ki in [1] of 35 µM.
With `O=C1c2c(O)ccc([N+](=O)[O-])c2C(=O)c2c([N+](=O)[O-])ccc(O)c21`, the Ki in data set [1] turned out to be 4.2 µM; in data set [2] it was 432 µM.
`Cc1ccc(S(=O)(=O)Nc2cc(SCC(=O)O)c(O)c3ccccc23)cc1[N+](=O)[O-]`: the selectivity ratio stood at 27.7 in data set [3], 90.8 in [4], 69.3 in data set [5] and 68.6 in data set [6].
Consider `N=C(N)Nc1ccc(O[C@H]2C[C@@H](Oc3ccc(NC(=N)N)cc3NC(=N)N)[C@H](NC(=N)N)C[C@@H]2NC(=N)N)c(NC(=N)N)c1`, for which the IC50 in data set [7] is 3 µM; in data set [8] it was 5 µM; in [9] it was 5 µM; in [10], 11 µM. Moreover, in [11], the inhibitory constant (Ki) was 15.4 µM.
As for `O=C(Nc1nc2cc(O)c(O)cc2s1)c1ccccc1Oc1ccc2cc(O)ccc2c1`, the IC50 in [12] is 2 µM; in data set [13] it was 1.6 µM; in data set [14], 2.3 µM; in data set [15], 2 µM.
As to `CCc1ccc(NS(=O)(=O)c2ccc(N3C(=O)c4ccccc4C3=O)cc2)cc1`, in [16], the IC50 came out at 48.2 µM.
Turning to `c1ccc(-c2ccc(Nc3nnc(Nc4ccc(C5=NCCN5)cc4)c4ccccc34)cc2)cc1`, the EC50 in the data set on dengue virus type 2 came out at 0.23 µM. For the same molecule, the half-inhibitory concentration (IC50) in [17] turned out to be 22.6 µM.
Take `NC(=O)[C@H](Cc1c[nH]c2ccccc12)NC(=O)[C@H](CS)NC(=O)[C@H](Cc1ccc(O)cc1)NC(=O)[C@@H](N)Cc1c[nH]c2ccccc12` (H-WYCW-NH2): the Ki in data set [18] amounted to 4.2 µM; in data set [19], 4.8 µM; in [20], 24.4 µM; in data set [21], 11.2 µM.
